# Reference: ChEMBL document CHEMBL1201862, “PubChem BioAssay data set” (2004)
#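 Cultured in 96-well plates, cells were exposed to test compound for 48 hours across five concentrations. At the GI50, growth is halved.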 Active and inactive are the calls of the source. Rule as the data show it: active = GI50 up to about 1.1 µM and inactive = higher.
# Assays:
# Assay in all cases: DTP human tumour cell line panel, 48 h
# [1] = test system: 786-0
# [2] = test system: A549
# [3] = test system: COLO 205
# [4] = test system: DU-145
# [5] = test system: EKVX
# [6] = test system: HCT-116
# [7] = test system: IGROV-1
# [8] = test system: K562
# [9] = test system: MDA-MB-231
# [10] = test system: MDA-MB-435
# [11] = test system: OVCAR-5
# [12] = test system: OVCAR-8
# [13] = test system: SN12C
# [14] = test system: SNB-19
# [15] = test system: SR
# [16] = test system: T47D
# [17] = test system: TK-10
# [18] = test system: UACC-257
SMILES,GI50 [1],GI50 [2],GI50 [3],GI50 [4],GI50 [5],GI50 [6],GI50 [7],GI50 [8],GI50 [9],GI50 [10],GI50 [11],GI50 [12],GI50 [13],GI50 [14],GI50 [15],GI50 [16],GI50 [17],GI50 [18]
Cc1sc(NC=C2C(=O)CC(C)(C)CC2=O)nc1-c1ccccc1,> 100 µM (inactive),> 100 µM (inactive),> 100 µM (inactive),> 100 µM (inactive),> 100 µM (inactive),> 100 µM (inactive),> 100 µM (inactive),> 100 µM (inactive),> 100 µM (inactive),> 100 µM (inactive),> 100 µM (inactive),> 100 µM (inactive),> 100 µM (inactive),> 100 µM (inactive),> 100 µM (inactive),> 100 µM (inactive),> 100 µM (inactive),> 100 µM (inactive)
CN(C)/C=C/c1ccncc1,> 100 µM (inactive),> 100 µM (inactive),> 100 µM (inactive),> 100 µM (inactive),> 100 µM (inactive),> 100 µM (inactive),> 100 µM (inactive),> 100 µM (inactive),> 100 µM (inactive),> 100 µM (inactive),> 100 µM (inactive),> 100 µM (inactive),> 100 µM (inactive),> 100 µM (inactive),> 100 µM (inactive),> 100 µM (inactive),> 100 µM (inactive),> 100 µM (inactive)
O=C(O)c1nc2nc(Cl)c(Cl)nc2[nH]1,> 100 µM (inactive),> 100 µM (inactive),> 100 µM (inactive),> 100 µM (inactive),> 100 µM (inactive),> 100 µM (inactive),> 100 µM (inactive),> 100 µM (inactive),> 100 µM (inactive),> 100 µM (inactive),> 100 µM (inactive),> 100 µM (inactive),> 100 µM (inactive),> 100 µM (inactive),> 100 µM (inactive),> 100 µM (inactive),> 100 µM (inactive),> 100 µM (inactive)
CN(C)CC1CCC/C(=C\c2ccc(OC(=O)/C=C/c3ccccc3)cc2)C1=O (stereo not drawn),0.776 µM (active),2.75 µM (inactive),1.99 µM (inactive),2.47 µM (inactive),2.18 µM (inactive),1.34 µM (inactive),3.85 µM (inactive),3.06 µM (inactive),2.73 µM (inactive),2.59 µM (inactive),2.45 µM (inactive),2 µM (inactive),2.01 µM (inactive),5.35 µM (inactive),0.796 µM (active),1.06 µM (active),1.73 µM (inactive),3.48 µM (inactive)
COc1cc(-c2cc(=O)c3c(OC)c(OC)c(OC)c(OC)c3o2)cc(OC)c1OC [HEPATAMETHOXYFLAVONE],58.9 µM (inactive),35.5 µM (inactive),18.7 µM (inactive),45.5 µM (inactive),48.4 µM (inactive),44.8 µM (inactive),52.2 µM (inactive),63.4 µM (inactive),31.6 µM (inactive),29 µM (inactive),> 100 µM (inactive),24.5 µM (inactive),43.6 µM (inactive),76.6 µM (inactive),> 100 µM (inactive),12.7 µM (inactive),44.4 µM (inactive),40 µM (inactive)
O=S(=O)(O)c1ccc2c(/N=N/c3c(O)ccc4ccccc34)cccc2c1,> 100 µM (inactive),> 100 µM (inactive),> 100 µM (inactive),> 100 µM (inactive),61.5 µM (inactive),> 100 µM (inactive),65.8 µM (inactive),34.3 µM (inactive),> 100 µM (inactive),> 100 µM (inactive),> 100 µM (inactive),> 100 µM (inactive),> 100 µM (inactive),> 100 µM (inactive),> 100 µM (inactive),> 100 µM (inactive),> 100 µM (inactive),> 100 µM (inactive)
CNC(=S)/C(=N\Nc1[nH]cnc1C(N)=O)C(N)=S,7.71 µM (inactive),> 84.1 µM (inactive),4.57 µM (inactive),1.2 µM (inactive),22.3 µM (inactive),3.52 µM (inactive),3.56 µM (inactive),0.444 µM (active),2.12 µM (inactive),7.03 µM (inactive),> 31.6 µM (inactive),1.11 µM (active),2.44 µM (inactive),45.3 µM (inactive),< 0.01 µM (active),11.6 µM (inactive),1.24 µM (inactive),9.62 µM (inactive)
CC1CC(NN(C)C)C2(C(N)=O)C(N)=NC(=O)C12C#N (stereo not drawn),> 100 µM (inactive),> 100 µM (inactive),> 100 µM (inactive),> 100 µM (inactive),> 100 µM (inactive),> 100 µM (inactive),> 100 µM (inactive),> 100 µM (inactive),> 100 µM (inactive),> 100 µM (inactive),> 100 µM (inactive),> 100 µM (inactive),> 100 µM (inactive),> 100 µM (inactive),> 100 µM (inactive),> 100 µM (inactive),> 100 µM (inactive),> 100 µM (inactive)
C=C(Br)C[N+]12CN3CN(CN(C3)C1)C2,> 100 µM (inactive),> 100 µM (inactive),> 100 µM (inactive),> 100 µM (inactive),> 100 µM (inactive),> 100 µM (inactive),> 100 µM (inactive),> 100 µM (inactive),> 100 µM (inactive),> 100 µM (inactive),> 100 µM (inactive),> 100 µM (inactive),> 100 µM (inactive),> 100 µM (inactive),> 100 µM (inactive),> 100 µM (inactive),–,> 100 µM (inactive)
COc1ccccc1C(O)[C@@H]1C[C@@H]2[C@H]3CC[C@@](C)([C@@H]2O1)C3(C)C (stereo partly drawn),17.8 µM (inactive),21.2 µM (inactive),19.1 µM (inactive),22.1 µM (inactive),45.2 µM (inactive),20.5 µM (inactive),15.9 µM (inactive),21.3 µM (inactive),17.3 µM (inactive),18.5 µM (inactive),19.5 µM (inactive),18.2 µM (inactive),16.4 µM (inactive),22.8 µM (inactive),20.6 µM (inactive),16.4 µM (inactive),21.8 µM (inactive),20.3 µM (inactive)
CCCCCCCCCCCCCCCC(=O)OCC(COP(=O)(O)OCCNC(=O)CCSSc1ccccn1)OC(=O)CCCCCCCCCCCCCCC (stereo not drawn),> 100 µM (inactive),> 100 µM (inactive),> 100 µM (inactive),> 100 µM (inactive),> 100 µM (inactive),> 100 µM (inactive),> 100 µM (inactive),> 100 µM (inactive),> 100 µM (inactive),> 100 µM (inactive),> 100 µM (inactive),> 100 µM (inactive),> 100 µM (inactive),> 100 µM (inactive),> 100 µM (inactive),> 100 µM (inactive),–,> 100 µM (inactive)
O=C(OC1CN2CCC1CC2)N(c1ccccc1)c1ccccc1 (stereo not drawn),> 100 µM (inactive),> 100 µM (inactive),43.1 µM (inactive),> 100 µM (inactive),> 100 µM (inactive),47.4 µM (inactive),> 100 µM (inactive),24.9 µM (inactive),54 µM (inactive),> 100 µM (inactive),> 100 µM (inactive),> 100 µM (inactive),> 100 µM (inactive),> 100 µM (inactive),4.61 µM (inactive),> 100 µM (inactive),56.2 µM (inactive),62.5 µM (inactive)
O=C(c1ccc([N+](=O)[O-])cc1)C(Br)C(Br)c1ccnc2ccccc12 (stereo not drawn),2.54 µM (inactive),8.28 µM (inactive),13 µM (inactive),11.8 µM (inactive),8.79 µM (inactive),1.92 µM (inactive),13.7 µM (inactive),2.83 µM (inactive),13.1 µM (inactive),2.98 µM (inactive),16.5 µM (inactive),9.08 µM (inactive),4.46 µM (inactive),5.98 µM (inactive),2.24 µM (inactive),5.96 µM (inactive),4.58 µM (inactive),2.18 µM (inactive)
CC(C)O/N=C/c1cc(NC(=S)OC(C)C)ccc1Cl,33.3 µM (inactive),35.4 µM (inactive),56.8 µM (inactive),> 65.5 µM (inactive),19.1 µM (inactive),23.3 µM (inactive),28.2 µM (inactive),29.4 µM (inactive),19.1 µM (inactive),> 61.4 µM (inactive),48.6 µM (inactive),36.9 µM (inactive),31.6 µM (inactive),> 54.8 µM (inactive),16.1 µM (inactive),34.3 µM (inactive),> 58.6 µM (inactive),> 100 µM (inactive)
Cc1cc(=O)oc2c(CNC(Cc3ccccc3)C(=O)O)c(O)ccc12 (stereo not drawn),> 100 µM (inactive),> 100 µM (inactive),> 100 µM (inactive),> 100 µM (inactive),> 100 µM (inactive),> 100 µM (inactive),> 100 µM (inactive),> 100 µM (inactive),> 100 µM (inactive),> 100 µM (inactive),> 100 µM (inactive),> 100 µM (inactive),> 100 µM (inactive),> 100 µM (inactive),> 100 µM (inactive),> 100 µM (inactive),> 100 µM (inactive),> 100 µM (inactive)
